In patent EP0908457B1, “3-(1,2-benzisothiazol- and isoxazol-5-Y1)-2,4(1H,3H)-pyrimidinedione or thione and 3-(1,2-benzisothiazol- and isoxazol-5-y1)-4(3H)-pyrimidinone or thione herbicidal agents” (BASF AKTIENGESELLSCHAFT, priority 1997, dated 1999):

Assays:
[1] = test system: Echinochloa oryzoides (Ard.) Fritsch.; assay: Preemergence weed control under flooded paddy conditions, ECHORC (Watergrass (Calif.)); type: in vivo; conditions: flooded paddy; also: meaning of each grade not given here
Cyperus iria = assay: Preemergence weed control under flooded paddy conditions, CYPIR (Rice Flatsedge); type: in vivo; conditions: flooded paddy; also: meaning of each grade not given here
[2] = test system: Cyperus serotinus, Rottb.; assay: Preemergence weed control under flooded paddy conditions, CYPSE (Flatsedge); type: in vivo; also: meaning of each grade not given here
[3] = test system: Monochoria vaginalis, Presl.; assay: Preemergence weed control under flooded paddy conditions, MOOVA (Monochoria); type: in vivo; conditions: flooded paddy; also: meaning of each grade not given here
Sagittaria pygmaea, L. = assay: Preemergence weed control under flooded paddy conditions, SAGPY (Arrowhead (Pygmaea)); type: in vivo; conditions: flooded paddy; also: meaning of each grade not given here
[4] = test system: Oryza sativa, (L.) Tebonnet; assay: Rice tolerance to post-transplant applications under flooded paddy conditions (Example 187), ORYSAT (Rice, Tebonnet); as to herbicidal effect rating ORYSAT: meaning of each grade not given here
[5] = Rate 0.0320 kg/ha, preemergence, rated 3-4 weeks after treatment
[6] = Rate 0.0620 kg/ha, preemergence, rated 3-4 weeks after treatment
[7] = Rate 0.1250 kg/ha, preemergence, rated 3-4 weeks after treatment
[8] = Rate 0.2500 kg/ha, preemergence, rated 3-4 weeks after treatment
[9] = Rate 0.5000 kg/ha, preemergence, rated 3-4 weeks after treatment
[10] = 0.0313 kg/ha, preemergence weeds, rated three to four weeks after treatment
[11] = 0.0625 kg/ha, preemergence weeds, rated three to four weeks after treatment
[12] = 0.1250 kg/ha, preemergence weeds, rated three to four weeks after treatment
[13] = 0.2500 kg/ha, preemergence weeds, rated three to four weeks after treatment
[14] = 0.0313 kg/ha, rated three to four weeks after treatment
[15] = 0.0625 kg/ha, rated three to four weeks after treatment
[16] = 0.1250 kg/ha, rated three to four weeks after treatment
[17] = 0.2500 kg/ha, rated three to four weeks after treatment
[18] = 0.0313 kg/ha, preemergence, rated three to four weeks after treatment
[19] = 0.0625 kg/ha, preemergence, rated three to four weeks after treatment
[20] = 0.1250 kg/ha, preemergence, rated three to four weeks after treatment
[21] = 0.2500 kg/ha, preemergence, rated three to four weeks after treatment
[22] = Rate 0.0320 kg/ha, preemergence, rated three to four weeks after treatment
[23] = Rate 0.0620 kg/ha, preemergence, rated three to four weeks after treatment
[24] = Rate 0.1250 kg/ha, preemergence, rated three to four weeks after treatment
[25] = Rate 0.2500 kg/ha, preemergence, rated three to four weeks after treatment

## Cn1c(C(F)(F)F)cc(=O)n(-c2ccc3snc(-c4ccccc4OCC(N)=O)c3c2)c1=O [Example 548, Acetamide, 2-{o-{5-[3,6-dihydro-3-methyl-2,6-dioxo-4-(trifluoromethyl)-1(2H)-pyrimidinyl]-1,2-benzisothiazol-3-yl}phenoxy}-]
[1]; [5]
  herbicidal effect rating, ECHORC: 2.9
[1]; [6]
  herbicidal effect rating, ECHORC: 3.7
[1]; [7]
  herbicidal effect rating, ECHORC: 4.9
[1]; [8]
  herbicidal effect rating, ECHORC: 9.0
[1]; [9]
  herbicidal effect rating, ECHORC: 6.0
Cyperus iria; [5]
  herbicidal effect rating, CYPIR: 2.0
Cyperus iria; [6]
  herbicidal effect rating, CYPIR: 6.0
Cyperus iria; [7]
  herbicidal effect rating, CYPIR: 8.0
Cyperus iria; [8]
  herbicidal effect rating, CYPIR: 9.0
Cyperus iria; [9]
  herbicidal effect rating, CYPIR: 0.0
[2]; [6]
  herbicidal effect rating, CYPSE: 9.0
[2]; [7]
  herbicidal effect rating, CYPSE: 9.0
[2]; [8]
  herbicidal effect rating, CYPSE: 9.0
[2]; [9]
  herbicidal effect rating, CYPSE: 9.0
[3]; [5]
  herbicidal effect rating, MOOVA: 8.0
[3]; [6]
  herbicidal effect rating, MOOVA: 9.0
[3]; [7]
  herbicidal effect rating, MOOVA: 9.0
[3]; [8]
  herbicidal effect rating, MOOVA: 9.0
[3]; [9]
  herbicidal effect rating, MOOVA: 9.0
Sagittaria pygmaea, L.; [5]
  herbicidal effect rating, SAGPY: 0.0
Sagittaria pygmaea, L.; [6]
  herbicidal effect rating, SAGPY: 0.0
Sagittaria pygmaea, L.; [7]
  herbicidal effect rating, SAGPY: 2.0
Sagittaria pygmaea, L.; [8]
  herbicidal effect rating, SAGPY: 4.0
Sagittaria pygmaea, L.; [9]
  herbicidal effect rating, SAGPY: 0.0
[4]; Rate 0.0320 kg/ha, rated 3-4 weeks after treatment
  herbicidal effect rating ORYSAT: 3.0
[4]; Rate 0.0620 kg/ha, rated 3-4 weeks after treatment
  herbicidal effect rating ORYSAT: 2.0
[4]; Rate 0.1250 kg/ha, rated 3-4 weeks after treatment
  herbicidal effect rating ORYSAT: 4.0
[4]; Rate 0.2500 kg/ha, rated 3-4 weeks after treatment
  herbicidal effect rating ORYSAT: 6.0
[4]; Rate 0.5000 kg/ha, rated 3-4 weeks after treatment
  herbicidal effect rating ORYSAT: 4.0

## Cn1c(C(F)(F)F)cc(=O)n(-c2ccc3snc(COCC(F)F)c3c2)c1=O [Example 203, 3-{3-[(2,2-Difluoroethoxy)methyl]-1,2-benzisothiazol-5-yl}-1-methyl-6-(trifluoromethyl)-2,4(1H,3H)-pyrimidinedione]
[1]; [10]
  herbicidal effect rating, ECHORC: 0.0
[1]; [11]
  herbicidal effect rating, ECHORC: 0.0
[1]; [12]
  herbicidal effect rating, ECHORC: 2.0
[1]; [13]
  herbicidal effect rating, ECHORC: 4.0
Cyperus iria; [10]
  herbicidal effect rating, CYPIR: 9.0
Cyperus iria; [11]
  herbicidal effect rating, CYPIR: 9.0
Cyperus iria; [12]
  herbicidal effect rating, CYPIR: 9.0
Cyperus iria; [13]
  herbicidal effect rating, CYPIR: 9.0
[2]; [10]
  herbicidal effect rating, CYPSE: 0.0
[2]; [11]
  herbicidal effect rating, CYPSE: 0.0
[2]; [12]
  herbicidal effect rating, CYPSE: 2.0
[2]; [13]
  herbicidal effect rating, CYPSE: 6.0
[3]; [10]
  herbicidal effect rating, MOOVA: 0.0
[3]; [11]
  herbicidal effect rating, MOOVA: 0.0
[3]; [12]
  herbicidal effect rating, MOOVA: 2.0
[3]; [13]
  herbicidal effect rating, MOOVA: 8.0
Sagittaria pygmaea, L.; [10]
  herbicidal effect rating, SAGPY: 0.0
Sagittaria pygmaea, L.; [11]
  herbicidal effect rating, SAGPY: 0.0
Sagittaria pygmaea, L.; [12]
  herbicidal effect rating, SAGPY: 2.0
Sagittaria pygmaea, L.; [13]
  herbicidal effect rating, SAGPY: 4.0
[4]; [14]
  herbicidal effect rating, ORYSAT (rice tolerance): 4.0
[4]; [15]
  herbicidal effect rating, ORYSAT (rice tolerance): 6.0
[4]; [16]
  herbicidal effect rating, ORYSAT (rice tolerance): 6.0
[4]; [17]
  herbicidal effect rating, ORYSAT (rice tolerance): 7.0

## Cc1ccc(OCC(=O)N(C(C)C)C(C)C)c(-c2nsc3ccc(-n4c(=O)cc(C(F)(F)F)n(C)c4=O)cc23)c1 [Example 61, 3-{3-{6-[(Diisopropylcarbamoyl)methoxy]-m-tolyl}-1,2-benzisothiazol-5-yl}-1-methyl-6-(trifluoromethyl)-2,4(1H,3H)-pyrimidinedione]
[1]; [18]
  herbicidal effect rating, ECHORC: 4.0
[1]; [19]
  herbicidal effect rating, ECHORC: 7.0
[1]; [20]
  herbicidal effect rating, ECHORC: 8.0
[1]; [21]
  herbicidal effect rating, ECHORC: 8.0
Cyperus iria; [18]
  herbicidal effect rating, CYPIR: 0.0
Cyperus iria; [19]
  herbicidal effect rating, CYPIR: 0.0
Cyperus iria; [20]
  herbicidal effect rating, CYPIR: 2.0
Cyperus iria; [21]
  herbicidal effect rating, CYPIR: 2.0
[2]; [18]
  herbicidal effect rating, CYPSE: 0.0
[2]; [19]
  herbicidal effect rating, CYPSE: 0.0
[2]; [20]
  herbicidal effect rating, CYPSE: 0.0
[2]; [21]
  herbicidal effect rating, CYPSE: 0.0
[3]; [18]
  herbicidal effect rating, MOOVA: 8.0
[3]; [19]
  herbicidal effect rating, MOOVA: 8.0
[3]; [20]
  herbicidal effect rating, MOOVA: 9.0
[3]; [21]
  herbicidal effect rating, MOOVA: 9.0
Sagittaria pygmaea, L.; [18]
  herbicidal effect rating, SAGPY: 0.0
Sagittaria pygmaea, L.; [19]
  herbicidal effect rating, SAGPY: 0.0
Sagittaria pygmaea, L.; [20]
  herbicidal effect rating, SAGPY: 0.0
Sagittaria pygmaea, L.; [21]
  herbicidal effect rating, SAGPY: 0.0
[4]; [14]
  herbicidal effect rating, ORYSAT (rice tolerance): 0.0
[4]; [15]
  herbicidal effect rating, ORYSAT (rice tolerance): 0.0
[4]; [16]
  herbicidal effect rating, ORYSAT (rice tolerance): 0.0
[4]; [17]
  herbicidal effect rating, ORYSAT (rice tolerance): 0.0

## CC#CCOC(=O)c1nsc2ccc(-n3c(=O)cc(C(F)(F)F)n(C)c3=O)cc12 [Example 384, 1,2-Benzisothiazole-3-carboxylic acid, 5-[3,6-dihydro-3-methyl-2,6-dioxo-4-(trifluoromethyl)-1(2H)-pyrimidinyl]-, 2-butynyl ester]
[1]; [22]
  herbicidal effect rating, ECHORC: 2.0
[1]; [23]
  herbicidal effect rating, ECHORC: 4.0
[1]; [24]
  herbicidal effect rating, ECHORC: 4.0
[1]; [25]
  herbicidal effect rating, ECHORC: 6.0
Cyperus iria; [22]
  herbicidal effect rating, CYPIR: 4.0
Cyperus iria; [23]
  herbicidal effect rating, CYPIR: 7.0
Cyperus iria; [24]
  herbicidal effect rating, CYPIR: 8.0
Cyperus iria; [25]
  herbicidal effect rating, CYPIR: 8.0
[2]; [22]
  herbicidal effect rating, CYPSE: 7.0
[2]; [23]
  herbicidal effect rating, CYPSE: 7.0
[2]; [24]
  herbicidal effect rating, CYPSE: 7.0
[2]; [25]
  herbicidal effect rating, CYPSE: 7.0
[3]; [22]
  herbicidal effect rating, MOOVA: 9.0
[3]; [23]
  herbicidal effect rating, MOOVA: 9.0
[3]; [24]
  herbicidal effect rating, MOOVA: 9.0
[3]; [25]
  herbicidal effect rating, MOOVA: 9.0
Sagittaria pygmaea, L.; [22]
  herbicidal effect rating, SAGPY: 5.0
Sagittaria pygmaea, L.; [23]
  herbicidal effect rating, SAGPY: 6.0
Sagittaria pygmaea, L.; [24]
  herbicidal effect rating, SAGPY: 6.0
Sagittaria pygmaea, L.; [25]
  herbicidal effect rating, SAGPY: 6.0
[4]; Rate 0.0320 kg/ha, rated three to four weeks after treatment
  herbicidal effect rating ORYSAT: 4.0
[4]; Rate 0.0620 kg/ha, rated three to four weeks after treatment
  herbicidal effect rating ORYSAT: 4.0
[4]; Rate 0.1250 kg/ha, rated three to four weeks after treatment
  herbicidal effect rating ORYSAT: 7.0
[4]; Rate 0.2500 kg/ha, rated three to four weeks after treatment
  herbicidal effect rating ORYSAT: 6.0
